In the NIST ThermoML archive (doi:10.1007/s10765-005-8591-6):
± gives the expanded uncertainty stated by the source.

Tests used:
[1] = Fluid (supercritical or subcritical phases), Constant-volume piezometry
[2] = xn = mol fraction of the nth substance listed; settings: Fluid (supercritical or subcritical phases), Constant-volume piezometry, x1 = 1

SMILES: FCF [difluoromethane]
- mass density ([1]; 313.16 K, 3353.7 kPa): 900.17 ± 0.41 kg/m3
- mass density ([1]; 316.15 K, 4967.1 kPa): 899.97 ± 0.41 kg/m3
- mass density ([1]; 319.15 K, 6571.4 kPa): 899.77 ± 0.41 kg/m3
- mass density ([1]; 322.15 K, 8162.4 kPa): 899.57 ± 0.42 kg/m3
- mass density ([1]; 328.16 K, 11400 kPa): 899.19 ± 0.43 kg/m3
- mass density ([1]; 334.15 K, 14753 kPa): 898.82 ± 0.44 kg/m3
- mass density ([1]; 337.15 K, 16580 kPa): 898.63 ± 0.44 kg/m3

SMILES: FCF [difluoromethane] + FC(F)C(F)(F)F
- mass density ([2]; 313.16 K, 3353.7 kPa): 900.17 ± 0.41 kg/m3
- mass density ([2]; 316.15 K, 4967.1 kPa): 899.97 ± 0.41 kg/m3
- mass density ([2]; 319.15 K, 6571.4 kPa): 899.77 ± 0.41 kg/m3
- mass density ([2]; 322.15 K, 8162.4 kPa): 899.57 ± 0.42 kg/m3
- mass density ([2]; 328.16 K, 11400 kPa): 899.19 ± 0.43 kg/m3
- mass density ([2]; 334.15 K, 14753 kPa): 898.82 ± 0.44 kg/m3
- mass density ([2]; 337.15 K, 16580 kPa): 898.63 ± 0.44 kg/m3

SMILES: FC(F)C(F)(F)F [pentafluoroethane]
- mass density ([1]; 258.16 K, 4595.6 kPa): 1403.78 ± 0.63 kg/m3
- mass density ([1]; 261.15 K, 6579.8 kPa): 1403.47 ± 0.63 kg/m3
- mass density ([1]; 262.14 K, 7284.6 kPa): 1403.36 ± 0.63 kg/m3
- mass density ([1]; 267.16 K, 10809 kPa): 1402.84 ± 0.64 kg/m3
- mass density ([1]; 270.19 K, 13003 kPa): 1402.53 ± 0.64 kg/m3
- mass density ([1]; 273.15 K, 15076 kPa): 1402.23 ± 0.65 kg/m3
- mass density ([1]; 275.15 K, 16572 kPa): 1402.04 ± 0.65 kg/m3
